Results reported in ChEMBL document CHEMBL1139882, “Aurantiomides A-C, quinazoline alkaloids from the sponge-derived fungus Penicillium aurantiogriseum SP0-19” (J Nat Prod, 2007).
Values after ≈ are worked out from the molar mass of the structure shown.

Assays:
[1] = Cytotoxicity against BEL-7402 cells after 72 hrs by MTT assay; assay type: cell-based, Homo sapiens
A549 = assay: Cytotoxicity against A549 cells after 72 hrs by MTT assay; assay type: cell-based; conditions: human, a549, 72 h
P388 = assay: Cytotoxicity against P388 cells after 72 hrs by MTT assay; assay type: cell-based, Mus musculus; conditions: for IC50: Mus musculus, P388, 72 h
HL-60 = assay: Cytotoxicity against HL60 cells after 72 hrs by MTT assay; assay type: cell-based, Homo sapiens

Row | Compound | Activity ([1]; human, bel-7402, 72 h) | Activity (A549) | Activity (P388; mouse, p388, 72 h) | Activity (HL-60; human, hl-60, 72 h) | IC50 ([1]; Homo sapiens, Bel-7402, 72 h) | IC50 (P388) | IC50 (HL-60; Homo sapiens, HL-60, 72 h)
1 | CO[C@@]1(CC(C)C)NC(=O)[C@H](CCC(N)=O)n2c1nc1ccccc1c2=O [AURANTIOMIDE A] | Not Active | Not Active | Not Active | Not Active |  |  | 
2 | CC(C)/C=C1\NC(=O)[C@H](CCC(N)=O)n2c1nc1ccccc1c2=O [AURANTIOMIDE C] |  |  |  |  | 48 µg/mL (≈ 141 µM) | 48 µg/mL (≈ 141 µM) | 
3 | CC(C)C[C@]1(O)NC(=O)[C@H](CCC(N)=O)n2c1nc1ccccc1c2=O [AURANTIOMIDE B] |  |  |  |  |  | 54 µg/mL (≈ 151 µM) | 52 µg/mL (≈ 145 µM)
